Reference: the Kinase Knowledgebase extract (Sharma et al. 2016)

Target: EGFR (human) (UniProt P00533)
Sequence (P00533 whole entry, looked up): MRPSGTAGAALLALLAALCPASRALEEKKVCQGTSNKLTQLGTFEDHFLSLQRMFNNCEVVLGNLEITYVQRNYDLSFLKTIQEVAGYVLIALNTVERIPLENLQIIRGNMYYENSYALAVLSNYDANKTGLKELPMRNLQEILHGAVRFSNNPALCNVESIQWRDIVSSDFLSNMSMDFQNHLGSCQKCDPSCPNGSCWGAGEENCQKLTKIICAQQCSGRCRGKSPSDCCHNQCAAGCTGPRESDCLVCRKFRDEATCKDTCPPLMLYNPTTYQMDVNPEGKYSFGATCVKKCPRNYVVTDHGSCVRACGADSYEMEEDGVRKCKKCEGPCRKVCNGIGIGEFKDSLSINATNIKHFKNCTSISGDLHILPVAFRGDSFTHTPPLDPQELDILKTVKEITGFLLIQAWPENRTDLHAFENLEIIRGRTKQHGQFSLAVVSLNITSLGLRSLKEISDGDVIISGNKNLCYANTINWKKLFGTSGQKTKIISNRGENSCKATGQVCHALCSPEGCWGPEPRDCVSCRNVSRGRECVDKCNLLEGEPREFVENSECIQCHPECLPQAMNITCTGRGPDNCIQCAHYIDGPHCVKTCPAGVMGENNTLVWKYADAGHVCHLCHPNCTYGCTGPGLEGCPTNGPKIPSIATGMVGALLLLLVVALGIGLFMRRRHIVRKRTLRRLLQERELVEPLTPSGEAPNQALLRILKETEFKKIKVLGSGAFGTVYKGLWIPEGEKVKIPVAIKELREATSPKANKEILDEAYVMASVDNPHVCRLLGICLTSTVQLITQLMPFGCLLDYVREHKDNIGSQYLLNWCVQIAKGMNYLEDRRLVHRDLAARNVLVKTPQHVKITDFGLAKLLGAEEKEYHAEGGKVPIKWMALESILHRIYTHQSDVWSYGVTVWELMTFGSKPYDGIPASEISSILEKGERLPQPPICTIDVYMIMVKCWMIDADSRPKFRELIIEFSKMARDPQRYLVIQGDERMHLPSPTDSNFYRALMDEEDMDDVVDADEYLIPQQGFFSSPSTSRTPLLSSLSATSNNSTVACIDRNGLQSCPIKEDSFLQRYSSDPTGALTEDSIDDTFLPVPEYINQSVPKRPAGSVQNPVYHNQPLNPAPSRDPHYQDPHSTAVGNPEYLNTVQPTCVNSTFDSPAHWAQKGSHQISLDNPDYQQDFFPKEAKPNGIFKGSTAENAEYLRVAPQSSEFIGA

Structure (SMILES)	Ki [µM]
C[C@@H](Nc1ccnc2[nH]c3ccccc3c12)c1ccccc1	0.84
c1ccc2c(CNc3ccnc4[nH]c5ccccc5c34)cccc2c1	0.36
c1ccc(CCNc2ccnc3[nH]c4ccccc4c23)cc1	1.04
c1cncc(CNc2ccnc3[nH]c4ccccc4c23)c1	3.83
Clc1cccc(CNc2ccnc3[nH]c4ccccc4c23)c1	0.099
c1ccc(CNc2ccnc3[nH]c4ccccc4c23)cc1	0.085

The remaining molecules from weak to strong by Ki, led by results:

Ki [µM]	Structure (SMILES)
1.04	Clc1ccc(CNc2ccnc3[nH]c4ccccc4c23)cc1
0.45	COc1ccc(CNc2ccnc3[nH]c4ccccc4c23)cc1
0.043	Brc1ccc2[nH]c3nccc(NCc4ccccc4)c3c2c1
0.03	C[C@H](Nc1ccnc2[nH]c3ccccc3c12)c1ccccc1
